These results are taken from patent US20200138028A1, “MICROBIOCIDAL OXADIAZOLE DERIVATIVES” (SYNGENTA PARTICIPATIONS AG, priority 2016, published 2020).

The structures appear in SMILES notation.

Series [1] has as its system Glomerella laqenarium (Colletotrichum laqenarium). Briefly: Glomerella laqenarium (Colletotrichum laqenarium) liquid culture / cucumber / preventative (anthracnose). Format: cell-based. The following applies: 20 ppm in the applied formulation, liquid culture in PDB, 24° C., 3 to 4 days after application, read-out: disease control compared to untreated control (inhibition of growth, photometric). Here is the method:
Mycelia fragments or conidia suspensions of a fungus prepared either freshly from liquid cultures of the fungus or from cryogenic storage, are directly mixed into nutrient broth. DMSO solutions of the test compound (max. 10 mg/ml) are diluted with 0.025% Tween20 by a factor of 50 and 10 μl of this solution is pipetted into a microtiter plate (96-well format). The nutrient broth containing the fungal spores/mycelia fragments is then added to give an end concentration of the tested compound. The test plates are incubated in the dark at 24° C. and 96% relative humidity. The inhibition of fungal growth is determined photometrically after 2 to 7 days, depending on the pathosystem, and percent antifungal activity relative to the untreated check is calculated.
Conidia of the fungus from cryogenic storage are directly mixed into nutrient broth (PDB—potato dextrose broth). After placing a (DMSO) solution of test compound into a microtiter plate (96-well format), the nutrient broth containing the fungal spores is added. The test plates are incubated at 24° C. and the inhibition of growth is measured photometrically 3 to 4 days after application.
The following compounds at 20 ppm in the applied formulation give at least 80% disease control in this test when compared to untreated control under the same conditions, which show extensive disease development.

In series [2] the test system is Puccinia recondita f. sp. tritici. Briefly: Puccinia recondita f. sp. tritici / wheat / leaf disc curative (brown rust). It counts as in vivo. The settings on record: foliar, 200 ppm in the applied formulation, wheat leaf segments cv. Kanzler, applied 1 day after inoculation, 6 to 8 days after application, read-out: disease control compared to untreated control leaf disks. Here is the method: Leaf disks or leaf segments of various plant species are cut from plants grown in a greenhouse. The cut leaf disks or segments are placed in multiwell plates (24-well format) onto water agar. The leaf disks are sprayed with a test solution before (preventative) or after (curative) inoculation. Compounds to be tested are prepared as DMSO solutions (max. 10 mg/ml) which are diluted to the appropriate concentration with 0.025% Tween20 just before spraying. The inoculated leaf disks or segments are incubated under defined conditions (temperature, relative humidity, light, etc.) according to the respective test system. A single evaluation of disease level is carried out 3 to 14 days after inoculation, depending on the pathosystem. Percent disease control relative to the untreated check leaf disks or segments is then calculated.
Wheat leaf segments cv. Kanzler are placed on agar in multiwell plates (24-well format). The leaf segments are then inoculated with a spore suspension of the fungus. Plates were stored in darkness at 19° C. and 75% relative humidity. The formulated test compound diluted in water was applied 1 day after inoculation. The leaf segments were incubated at 19° C. and 75% relative humidity under a light regime of 12 hours light/12 hours darkness in a climate cabinet and the activity of a compound was assessed as percent disease control compared to untreated when an appropriate level of disease damage appears in untreated check leaf segments (6 to 8 days after application).
The following compounds at 200 ppm in the applied formulation give at least 80% disease control in this test when compared to untreated control leaf disks under the same conditions, which show extensive disease development.

What is called inhibition is the drop in the measured response relative to a control, in per cent. For the compound `Cc1cc(-c2noc(C(F)(F)F)n2)ccc1NC(=O)C1CCOC1` (stereo not drawn) [Compound 1.16, N-[2-methyl-4-[5-(trifluoromethyl)-1,2,4-oxadiazol-3-yl]phenyl]tetrahydrofuran-3-carboxamide], the inhibition at 20 ppm in series [1] was at least 80%. As to `CC1(C(=O)Nc2ccc(-c3noc(C(F)(F)F)n3)cc2F)CC1` [Compound 1.10, N-[2-fluoro-4-[5-(trifluoromethyl)-1,2,4-oxadiazol-3-yl]phenyl]-1-methyl-cyclopropanecarboxamide], the inhibition at 20 ppm in series [1] was at least 80%. Moreover, in series [2], the pest or weed control at 200 ppm is at least 80%.

In the case of `Cc1cc(-c2noc(C(F)(F)F)n2)ccc1NC(=O)C1(C)CC1` [Compound 1.19, 1-methyl-N-[2-methyl-4-[5-(trifluoromethyl)-1,2,4-oxadiazol-3-yl]phenyl]cyclopropane carboxamide], in series [1], the inhibition at 20 ppm is at least 80%. Moreover, in series [2], the pest or weed control at 200 ppm was at least 80%. Consider `O=C(Nc1ccc(-c2noc(C(F)(F)F)n2)cc1F)C1CCC1` [Compound 1.8, N-[2-fluoro-4-[5-(trifluoromethyl)-1,2,4-oxadiazol-3-yl]phenyl] cyclobutanecarboxamide], for which, in series [1], the inhibition at 20 ppm was at least 80%.

In general, melting point refers to the temperature, or range, at which the solid turns liquid. Compound `O=C(Nc1ccc(-c2noc(C(F)(F)F)n2)cc1F)C1CC1` [Compound 1.3, N-[2-fluoro-4-[5-(trifluoromethyl)-1,2,4-oxadiazol-3-yl]phenyl]cyclopropane carboxamide] registered a melting point of 160 to 162 °C. The inhibition at 20 ppm in series [1] was at least 80%. Moreover, the pest or weed control at 200 ppm in series [2] was at least 80%.

In the case of `O=C(Nc1ccc(-c2noc(C(F)(F)F)n2)cc1F)C1CCCO1` (stereo not drawn) [Compound 1.11, N-[2-fluoro-4-[5-(trifluoromethyl)-1,2,4-oxadiazol-3-yl]phenyl]tetrahydrofuran-2-carboxamide], the inhibition at 20 ppm in series [1] is at least 80%. For `N#CC1(C(=O)Nc2ccc(-c3noc(C(F)(F)F)n3)cc2F)CC1` [Compound 1.12, 1-cyano-N-[2-fluoro-4-[5-(trifluoromethyl)-1,2,4-oxadiazol-3-yl]phenyl]cyclopropane carboxamide], the inhibition at 20 ppm in series [1] was at least 80%. Further, the pest or weed control at 200 ppm in series [2] was at least 80%. Consider `O=C(Nc1ccc(-c2noc(C(F)(F)F)n2)cc1F)c1ccccc1` [Compound 1.4, N-[2-fluoro-4-[5-(trifluoromethyl)-1,2,4-oxadiazol-3-yl]phenyl]benzamide], for which the melting point fell in the range of 166 to 175 °C. Same read-out and setting: next, `Cc1cc(-c2noc(C(F)(F)F)n2)ccc1NC(=O)c1ccccc1` [Compound 1.2, N-[2-methyl-4-[5-(trifluoromethyl)-1,2,4-oxadiazol-3-yl]phenyl]benzamide]: 173 to 176 °C; `Cc1cc(-c2noc(C(F)(F)F)n2)ccc1NC(=O)C1CC1` [Compound 1.1, N-[2-methyl-4-[5-(trifluoromethyl)-1,2,4-oxadiazol-3-yl]phenyl]cyclopropane carboxamide]: 185 to 196 °C. `O=C(Nc1ccc(-c2noc(C(F)(F)F)n2)cc1F)C1CC1(F)F` (stereo not drawn) [Compound 1.5, 2,2-difluoro-N-[2-fluoro-4-[5-(trifluoromethyl)-1,2,4-oxadiazol-3-yl]phenyl]cyclopropane carboxamide]: the inhibition at 20 ppm in series [1] is at least 80%. Further, in series [2], the pest or weed control at 200 ppm is at least 80%.

For the compound `CC1CC1C(=O)Nc1ccc(-c2noc(C(F)(F)F)n2)cc1F` (stereo not drawn) [Compound 1.9, N-[2-fluoro-4-[5-(trifluoromethyl)-1,2,4-oxadiazol-3-yl]phenyl]-2-methyl-cyclopropanecarboxamide], in series [1], the inhibition at 20 ppm was at least 80%. As for `O=C(Nc1ccc(-c2noc(C(F)(F)F)n2)cc1F)C1CCOC1` (stereo not drawn) [Compound 1.7, N-[2-fluoro-4-[5-(trifluoromethyl)-1,2,4-oxadiazol-3-yl]phenyl]tetrahydrofuran-3-carboxamide], the inhibition at 20 ppm in series [1] is at least 80%. For the same compound, the pest or weed control at 200 ppm in series [2] was at least 80%. As for `Cc1cc(-c2noc(C(F)(F)F)n2)ccc1NC(=O)C1CCCO1` (stereo not drawn) [Compound 1.20, N-[2-methyl-4-[5-(trifluoromethyl)-1,2,4-oxadiazol-3-yl]phenyl]tetrahydrofuran-2-carboxamide], in series [1], the inhibition at 20 ppm is at least 80%. Moreover, the pest or weed control at 200 ppm in series [2] is at least 80%. Regarding `O=C(CC1CC1)Nc1ccc(-c2noc(C(F)(F)F)n2)cc1F` [Compound 1.13, 2-cyclopropyl-N-[2-fluoro-4-[5-(trifluoromethyl)-1,2,4-oxadiazol-3-yl]phenyl]acetamide], in series [1], the inhibition at 20 ppm was at least 80%. Also, the pest or weed control at 200 ppm in series [2] was at least 80%.
